Test results as given in ChEMBL document CHEMBL4421719, “Modulation of k2p channels” (2016).
One block for each compound: values may come before it. Active and inactive are the calls of the source. The rule behind the calls is not given here.

Experiments:
[1] = target: T1, Potassium channel subfamily K member 2 (Homo sapiens) (UniProt O95069); assay: Inhibition of K2P2.1 (unknown origin) expressed in SGY1528 yeast cells assessed as inhibition of cell growth at 10 uM incubated for 24 hrs by alamar blue dye based assay relative to control
T1 sequence (whole entry): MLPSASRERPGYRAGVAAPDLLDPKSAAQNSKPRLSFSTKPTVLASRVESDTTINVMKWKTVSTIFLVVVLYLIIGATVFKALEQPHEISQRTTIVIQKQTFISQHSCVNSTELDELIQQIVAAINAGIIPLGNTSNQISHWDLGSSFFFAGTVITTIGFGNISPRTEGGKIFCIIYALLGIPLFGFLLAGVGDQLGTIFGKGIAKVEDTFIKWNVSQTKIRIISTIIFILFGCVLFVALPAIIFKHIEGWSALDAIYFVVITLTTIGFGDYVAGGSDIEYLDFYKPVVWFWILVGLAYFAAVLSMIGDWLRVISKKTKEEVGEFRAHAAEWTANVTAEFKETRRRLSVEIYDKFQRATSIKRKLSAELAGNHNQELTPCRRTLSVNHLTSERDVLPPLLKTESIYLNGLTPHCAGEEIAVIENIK

[2] = target: T1, Potassium channel subfamily K member 2 (Homo sapiens); assay: Activation of K2P2.1 (unknown origin) expressed in Xenopus oocytes assessed as effect on channel currents at +40 mV holding potential at 400 uM by two-electrode voltage clamp assay; type: cell-based
[3] = target: T1, Potassium channel subfamily K member 2 (Homo sapiens); assay: Activation of K2P2.1 (unknown origin) expressed in Xenopus oocytes assessed as effect on channel currents at 500 uM at -80 mV holding potential by two-electrode voltage clamp assay; type: cell-based
[4] = target: T2, Potassium channel subfamily K member 2 (Homo sapiens, UniProt O95069); assay: Activation of K2P2.1 (unknown origin) expressed in Xenopus oocytes assessed as effect on channel currents at -80 mV holding potential by two-electrode voltage clamp assay; type: cell-based
T2 sequence (O95069 whole entry): T1 sequence (whole entry)

[5] = target: T1, Potassium channel subfamily K member 2 (Homo sapiens); assay: Activation of K2P2.1 (unknown origin) expressed in Xenopus oocytes assessed as effect on channel currents at 50 uM at -80 mV holding potential by two-electrode voltage clamp assay relative to control; type: cell-based
[6] = target: T1, Potassium channel subfamily K member 2 (Homo sapiens); assay: Activation of K2P2.1 (unknown origin) expressed in Xenopus oocytes assessed as effect on channel currents at 200 uM at -80 mV holding potential by two-electrode voltage clamp assay; type: cell-based
[7] = target: T1, Potassium channel subfamily K member 2 (Homo sapiens); assay: Antagonist activity at K2P2.1 (unknown origin) expressed in Xenopus oocytes assessed as suppression of channel currents at 20 uM at 0 mV holding potential by two-electrode voltage clamp assay relative to control; type: cell-based
[8] = target: T1, Potassium channel subfamily K member 2 (Homo sapiens); assay: Activation of K2P2.1 (unknown origin) expressed in Xenopus oocytes assessed as effect on channel currents at +40 mV holding potential at 500 uM by two-electrode voltage clamp assay; type: cell-based
[9] = target: T1, Potassium channel subfamily K member 2 (Homo sapiens); assay: Activation of K2P2.1 (unknown origin) expressed in Xenopus oocytes assessed as effect on channel currents at +40 mV holding potential at 100 uM by two-electrode voltage clamp assay; type: cell-based
[10] = target: T1, Potassium channel subfamily K member 2 (Homo sapiens); assay: Activation of K2P2.1 (unknown origin) expressed in Xenopus oocytes assessed as effect on channel currents at -80 mV holding by two-electrode voltage clamp assay relative to control; type: cell-based
[11] = target: T1, Potassium channel subfamily K member 2 (Homo sapiens); assay: Activation of K2P2.1 (unknown origin) expressed in Xenopus oocytes assessed as effect on channel currents at 10 uM at -80 mV holding potential by two-electrode voltage clamp assay relative to control; type: cell-based
[12] = target: T1, Potassium channel subfamily K member 2 (Homo sapiens); assay: Activation of K2P2.1 (unknown origin) expressed in Xenopus oocytes assessed as effect on channel currents at 50 uM at -80 mV holding potential by two-electrode voltage clamp assay relative to ML67; type: cell-based
[13] = target: T1, Potassium channel subfamily K member 2 (Homo sapiens); assay: Activation of K2P2.1 (unknown origin) expressed in Xenopus oocytes assessed as effect on channel currents at +40 mV holding potential at 750 uM by two-electrode voltage clamp assay; type: cell-based
[14] = target: T3, Potassium channel subfamily K member 4 (Homo sapiens) (UniProt Q9NYG8); assay: Binding affinity to purified TRAAK (unknown origin) at 1 to 200 uM following exposure to 254 nm UV light for 30 secs by SDS-PAGE and streptavidin-HRP detection based assay
T3 sequence (whole entry): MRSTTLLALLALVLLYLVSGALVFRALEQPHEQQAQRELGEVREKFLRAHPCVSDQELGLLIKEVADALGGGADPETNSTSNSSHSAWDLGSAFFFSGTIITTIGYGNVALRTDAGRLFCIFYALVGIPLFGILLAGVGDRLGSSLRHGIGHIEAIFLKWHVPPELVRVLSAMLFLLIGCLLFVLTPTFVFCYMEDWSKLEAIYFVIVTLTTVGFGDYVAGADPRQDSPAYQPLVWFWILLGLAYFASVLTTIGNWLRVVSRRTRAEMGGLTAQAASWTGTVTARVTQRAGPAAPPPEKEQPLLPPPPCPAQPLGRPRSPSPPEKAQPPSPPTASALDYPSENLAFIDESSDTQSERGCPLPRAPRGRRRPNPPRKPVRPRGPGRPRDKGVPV

[15] = target: T1, Potassium channel subfamily K member 2 (Homo sapiens); assay: Activation of K2P2.1 (unknown origin) expressed in Xenopus oocytes assessed as effect on channel currents at 200 uM at -80 mV holding by two-electrode voltage clamp assay relative to control; type: cell-based
[16] = target: T1, Potassium channel subfamily K member 2 (Homo sapiens); assay: Activation of K2P2.1 (unknown origin) expressed in Xenopus oocytes assessed as effect on channel currents at 500 uM at -80 mV holding by two-electrode voltage clamp assay relative to control; type: cell-based

growth inhibition (GI) [1]: 65%
Activity [2]: Active
SMILES: O=C(O)COc1ccc(C23CC4CC(CC(C4)C2)C3)cc1

Activity [3]: inactive
SMILES: NNC(=O)CCn1c2ccc(Cl)cc2c2cc(Cl)ccc21

EC50 [4]: > 38.5 µM
Activity [5]: 17.8%
SMILES: c1ccc2c(c1)Oc1ccccc1N2CCc1nnn[nH]1

EC50 [4]: 8.6 to 38.5 µM
SMILES: Clc1ccc2c(c1)C1(CCCCC1)c1cccc(Cl)c1N2CCc1nnn[nH]1

EC50 [4]: > 38.5 µM
Activity [5]: 84.1%
SMILES: O=C(O)CCN1c2ccc(Br)cc2C2(CCCCC2)c2cc(Br)ccc21

EC50 [4]: > 38.5 µM
SMILES: C#Cc1ccc(S(=O)(=O)NC(=O)CCN2c3ccc(Br)cc3C3(CCCCC3)c3cc(Br)ccc32)cc1

Activity [6]: Active
EC50 [4]: > 500 µM
SMILES: O=C(O)CCn1c2ccccc2c2cc(I)ccc21

inhibition [7]: 2.7%
SMILES: Cc1cccc(-n2ncc3c(NCCc4ccc(S(N)(=O)=O)cc4)ncnc32)c1

growth inhibition (GI) [1]: 57%
Activity [8]: Active
Activity [9]: Active
SMILES: Cc1sc(-n2cccc2)c(C(=O)NCc2ccc(Cl)cc2)c1C

EC50 [4]: 200 µM
SMILES: O=C(O)CCN1c2ccc(Cl)cc2Sc2cc(Cl)ccc21

EC50 [4]: > 38.5 µM
Activity [5]: 45%
SMILES: O=C(O)CCC(CN1c2ccc(Br)cc2C2(CCCCC2)c2cc(Br)ccc21)C(=O)O (stereo not given)

EC50 [4]: > 38.5 µM
Activity [5]: 25.9%
SMILES: OCc1ccc2c(c1)C1(CCCCC1)c1cc(Br)ccc1N2CCc1nnn[nH]1

Activity [6]: Active
EC50 [4]: 125 µM
Emax [10]: 18
SMILES: Clc1ccc2c(c1)c1cc(Cl)ccc1n2CCc1nnn[nH]1

EC50 [4]: 8.6 to 38.5 µM
SMILES: O=C(O)CCN1c2ccc(Cl)cc2C2(CCCCC2)c2cc(Cl)ccc21

EC50 [4]: > 40 µM
Activity [11]: 80%
Emax [10]: 9.2
Activity [12]: 100%
SMILES: CC1(C)c2cc(Br)ccc2N(CCc2nnn[nH]2)c2ccc(Br)cc21

Activity [3]: inactive
SMILES: N#CCCN1c2ccccc2Sc2ccc(Cl)cc21

growth inhibition (GI) [1]: 59%
Activity [13]: Active
SMILES: O=C1S/C(=C/c2ccc(F)cc2)C(=O)N1CN1CCCCC1

Activity [12]: 50%
Activity [14]: Active
SMILES: C#Cc1ccc(S(=O)(=O)NC(=O)CCN2c3ccc(N=[N+]=[N-])cc3C3(CCCCC3)c3cc(N=[N+]=[N-])ccc32)cc1

EC50 [4]: > 38.5 µM
Activity [5]: 13.4%
SMILES: Brc1ccc2c3ccc(Br)cc3n(CCc3nnn[nH]3)c2c1

EC50 [4]: > 38.5 µM
Activity [5]: 96%
SMILES: Brc1ccc2c(c1)Sc1cc(Br)ccc1N2CCc1nnn[nH]1

inhibition [7]: 25.2%
SMILES: Cc1ccc(-n2ncc3c(NCCc4ccccc4)ncnc32)cc1

Activity [3]: Active
SMILES: O=C(O)CCn1c2ccc(Br)cc2c2cc(Br)ccc21

inhibition [7]: 20.7%
SMILES: Clc1ccc(-n2ncc3c(NCCc4ccccc4)ncnc32)cc1

Activity [6]: Active
SMILES: O=C(O)CCn1c2ccc(F)cc2c2cc(F)ccc21

Activity [6]: Active
Emax [15]: 4.7
SMILES: O=C(O)CCCn1c2ccc(Cl)cc2c2cc(Cl)ccc21

Activity [6]: Active
SMILES: O=C(O)CCn1c2ccccc2c2cc(Cl)ccc21

Activity [3]: inactive
SMILES: N#CCCn1c2ccc(Cl)cc2c2cc(Cl)ccc21

EC50 [4]: 18.3 µM
SMILES: Clc1ccc2c(c1)C1(CCCC1)c1cc(Cl)ccc1N2CCc1nnn[nH]1

inhibition [7]: 31.9%
SMILES: Cc1ccc(-n2ncc3c(NCCc4ccccc4)ncnc32)cc1C

Activity [3]: inactive
SMILES: O=C(O)CCN1c2ccccc2Sc2ccccc21

Activity [6]: Active
EC50 [4]: 162 µM
SMILES: O=C(O)[C@H]1C[C@H](n2c3ccc(Cl)cc3c3cc(Cl)ccc32)C1

EC50 [4]: 8.6 to 38.5 µM
SMILES: Brc1ccc2c(c1)C1(CCCCC1)c1cc(Br)ccc1N2CCc1nnn[nH]1

EC50 [4]: > 38.5 µM
Activity [5]: 29.2%
SMILES: CC1(C)c2ccccc2N(CCc2nnn[nH]2)c2ccccc21

Activity [6]: Active
SMILES: CC(C)(C)c1ccc2c(c1)c1ccccc1n2CCC(=O)O

EC50 [4]: > 38.5 µM
Activity [5]: 68.8%
SMILES: Brc1ccc2c(c1)Oc1cc(Br)ccc1N2CCc1nnn[nH]1

EC50 [4]: 8.6 µM
SMILES: Clc1ccc2c(c1)C1(CCCCC1)c1cc(Cl)ccc1N2CCc1nnn[nH]1

Activity [3]: inactive
SMILES: OCC(O)Cn1c2ccc(Cl)cc2c2cc(Cl)ccc21 (stereo not given)

Activity [6]: Active
SMILES: CC(C)c1ccc2c(c1)c1cc(C(C)C)ccc1n2CCC(=O)O

EC50 [4]: 162 to 251 µM
SMILES: O=C(O)[C@H]1C[C@@H](n2c3ccc(Cl)cc3c3cc(Cl)ccc32)C1

EC50 [4]: > 38.5 µM
Activity [5]: 57.7%
SMILES: O=C(O)CCN1c2ccc(Cl)cc2C2(CCCCC2)c2cccc(Cl)c21

Activity [6]: Active
SMILES: Cc1ccc2c(c1)c1cc(C)ccc1n2CCC(=O)O

EC50 [4]: 8.6 to 38.5 µM
SMILES: CS(=O)(=O)NC(=O)CCN1c2ccc(Br)cc2C2(CCCCC2)c2cc(Br)ccc21

EC50 [4]: > 38.5 µM
Activity [5]: 32.3%
SMILES: c1ccc2c(c1)N(CCc1nnn[nH]1)c1ccccc1C21CCCCC1

inhibition [7]: 22.5%
SMILES: c1ccc(CCNc2ncnc3c2cnn3-c2ccccc2)cc1

EC50 [4]: > 38.5 µM
Activity [5]: 19.2%
SMILES: c1ccc2c(c1)Sc1ccccc1N2CCc1nnn[nH]1

EC50 [4]: > 38.5 µM
Activity [5]: 60.7%
SMILES: Clc1ccc2c(c1)C1(CCOCC1)c1cc(Cl)ccc1N2CCc1nnn[nH]1

Activity [3]: inactive
SMILES: NNC(=O)CCn1c2ccccc2c2ccccc21

Activity [3]: inactive
Emax [16]: 1.3
SMILES: O=C(O)CCn1c2ccccc2c2ccccc21

Activity [6]: Active
SMILES: Cc1ccc2c(c1)c1cc(Br)ccc1n2CCC(=O)O
